Series [1] deals with Bovine aortic endothelial cells (BAEC). The experiment in a line: DCC expression in NO donor-treated BAECs. The note with it: NO donor 1 mmol/L, 2 hr. The class given is cell-based.
For series [2], the system named is isolated cardiomyocytes. The experiment in a line: DCC expression in NO donor-treated isolated cardiomyocytes. The class given is cell-based, mouse. Conditions: NO donor 1 mmol/L, 2 hr.
Procedure: NaCl 130, KCl 5.4, MgSO4 1, NaH2PO4 0.6, D-Glucose 10, HEPES 10, which was continuously bubbled with 95% O2+5% CO2. The enzymatic digestion was commenced by adding collagenase type II (Worthington Biochemical Corp., Lakewood, N.J., 0.56 mg/ml each) to the perfusion buffer and continued for 20 min. The heart was cut down and placed in the Petri dish with perfusion solution. The digested ventricular tissues were cut into 2-3 mm pieces and gently aspirated with a transfer pipette to facilitate cell dissociation. The myocytes were allowed to sediment by gravity for 8-10 min in the 15-ml Falcon tubes.
The subject of series [3] is infarct size post I/R insult. The note with it: nitrite supplementation; cited from earlier work.
For series [4], the system named is cardiac NO production. The experiment in a line: ESR detection of nitric oxide in Langendorff perfused heart homogenates. More on the design: species or system mouse. Conditions: agent prior to netrin-1, I/R; vs. untreated I/R controls. How it is done: Langendorff perfusion: The mice were anesthetized with intraperitoneal pentobarbitone (60 mg/kg). Hearts were harvested and rapidly transferred into ice-cold Krebs-Henseleit buffer (KHB). […] NaCl118.0, KCl 4.7, CaCl2 2.5, MgSO4 1.2, KH2PO4 1.2, NaHCO3 25.0, D-Glucose 10 at constant pressure (80±1 mmHg) using a peristaltic pump and feedback system. For no I/R setting, hearts were perfused with KHB or netrin-1 for 120 min. […] These experimental protocols are illustrated in FIG. 7. Electron spin resonance detection of nitric oxide radical: Bioavailable nitric oxide radical (NO) from cells or tissues was detected using electron spin resonance (ESR) as described. See Nguyen et al. (2006) PNAS USA 103:6530-5; and Youn et al. (2009) Circ. Res 104:50-59, which are herein incorporated by reference. […] Gently collected homogenates or cell suspensions were snap-frozen in liquid nitrogen and loaded into a finger Dewar for analysis with an eScan electron spin resonance (ESR) spectrophotometer (Bruker, Freemont, Calif.) at the following settings: center field, 3410; field sweep, 100 G; microwave frequency, 9.73 GHz; microwave power, 13.26 mW; modulation amplitude, 9.82 G; 512 points resolution and receiver gain, 356.

Series [5] concerns mouse heart ischemia/reperfusion injury. As to the kind of experiment: Langendorff I/R, netrin-1 given post-conditionally at onset of reperfusion, TTC infarct size. The note with it: for Infarct size, inhibitor alone: given at reperfusion without netrin-1; for Effect of netrin-1 postconditioning on infarct size, inhibitor co-treatment: inhibitor with netrin-1. The text has this: FIG. 17 diagrammatically provides the experimental protocols of the isolated C57BL/6J WT, DCC +/+ and +/−mice heart experiments with netrin-1 added post-conditionally. Data included in up to FIG. 16 indicated preventative role of netrin-1 in cardiac I/R injury when netrin-1 was given pre-conditionally ([…]). These new set of experiments are however critical in understanding if netrin-1 exerts cardioprotective effects when delivered as a post-conditioning agent at the onset of reperfusion (i.e. together with PTCA procedure). All hearts were stabilized for 40 min prior to experiments. Control hearts received 20 min of global no-flow ischemia followed by 60 min of reperfusion. Netrin-1 was given at the onset of the reperfusion. The signaling pathway inhibitors were given either alone accordingly or with the netrin-1 treatment. The arrows indicate the time for myocardial infarct sizing with 2,3,5-TTC (TTC) and for protein analysis by Western blot (WB). ▪=global no-flow ischemia.
Langendorff perfused hearts isolated from C57BL/6J wild-type (WT) control mice or DCC +/−mice underwent 20-min of global ischemia followed by 60-min of reperfusion. DCC (deleted in colorectal cancer) is one of the netrin-1 receptors we found to be however specifically involved in netrin-1 preconditioning induced cardioprotection. Netrin-1 was infused postconditionally at the onset of reperfusion at 100 ng/mL concentration with and without U0126, a specific MEK1/2 inhibitor, or 2-Phenyl-4,4,5,5-tetramethylimidazoline-1-oxyl-3-oxide (PTIO), a nitric oxide (NO)-scavenger. Infarct size was determined to evaluate the severity of myocardial injury using TTC staining, and protein kinase activations determined by Western blot analysis.

The test system is the same in series [6]. As to the kind of experiment: Langendorff perfused mouse heart, global ischemia/reperfusion, infarct size by TTC (netrin-1 pre-perfusion). Conditions: agent 30 min prior to netrin-1 (100 ng/ml, 45 min), then I/R. How it is done: Langendorff perfusion: The mice were anesthetized with intraperitoneal pentobarbitone (60 mg/kg). Hearts were harvested and rapidly transferred into ice-cold Krebs-Henseleit buffer (KHB). […] NaCl118.0, KCl 4.7, CaCl2 2.5, MgSO4 1.2, KH2PO4 1.2, NaHCO3 25.0, D-Glucose 10 at constant pressure (80±1 mmHg) using a peristaltic pump and feedback system. For no I/R setting, hearts were perfused with KHB or netrin-1 for 120 min. […] These experimental protocols are illustrated in FIG. 7. Infarct size analysis: […] The heart slices were then digitally photographed for planimetry using NIH Image 1.62. Infarct size is expressed as an infarct-to-risk zone ratio (the risk zone is the whole ventricular volume in this global ischemic model).

For series [7], the system named is I/R-induced cardiac apoptosis. The experiment in a line: TUNEL apoptosis detection in post-I/R heart sections. More on the design: species or system mouse. The note with it: agent + netrin-1, I/R.
Procedure: Detection of apoptosis: Apoptosis was detected by the apoptosis detection kit (Chemicon International, Inc., Billerica, Mass.) according to the manufacturer's protocol. At the end of the experimental protocols frozen heart sections (12 μm) were fixed with 1% formalin for 10 min at room temperature (RT) and washed twice in PBS, permeabilized with ethanol/acetic acid (2:1) for 5 min at −20° C., washed twice in PBS, and then incubated for >10 sec with the equilibration buffer. Subsequently, the sections were incubated for 1 hr with DIG-conjugated dUTP and TdT enzymes at 37° C., and then for 10 min in the stop buffer at room temperature (RT), and finally washed three times in PBS. The sections were then incubated with FITC-conjugated anti-DIG antibody for 30 min at RT, and washed three times in PBS. Cover-slipped sections were mounted with medium containing 0.5 μg/ml of propidium iodide. […] TUNEL assay was performed to determine whether netrin-1 inhibits apoptotic cell death induced by I/R. Left ventricular sections were incubated with FITC-conjugated anti-DIG antibody and coverslipped with the mounting medium containing 0.5 μg/ml of Propidium Iodide (PI).
Series [8] deals with DCC/ERK1/2/eNOS pathway. As to the kind of experiment: Western blot / RT-PCR of DCC, ERK1/2, eNOS signalling in perfused hearts. The arrangement: species or system mouse. The note with it: agent + netrin-1, I/R. How it is done: RT-PCR and Western blot: Total RNA was extracted from mouse hearts using TRIzol (Invitrogen, Carlsbad, Calif.) according to the manufacturer's instructions. Reverse transcription was performed in standard fashion with iScript cDNA Synthesis Kit (Bio-Rad, Hercules, Calif.). PCR was performed using the following primer pairs: PCRs were carried out on an iCycler (Bio-Rad, Hercules, Calif.) including primers generated for GAPDH, ((95° C./2 min), (95° C./25 sec, 57° C./5 sec, 68° C. 5 min)×35, (72° C./10 min)). Western blot analysis was performed as previously published. See Youn et al. (2009) Circ. Res 104:50-59, which is herein incorporated by reference. For no I/R setting, hearts were perfused with KHB or netrin-1 for 120 min. […] These experimental protocols are illustrated in FIG. 7.

For series [9], the system named is NOS. As to the kind of experiment: L-NAME sensitive superoxide production (NOS coupling state). More on the design: species or system mouse. Conditions: superoxide with and without L-NAME, I/R hearts. How it is done: Superoxide measurements with electron spin resonance (ESR): Superoxide production was measured from heart homogenates using ESR as previously described. Briefly, heart homogenate (10 μg) was mixed in a spin trap solution (CMH, 0.5 mmol/L), loaded into a glass capillary (Fisher Scientific) in the presence or absence of L-NAME (100 μmol/L), and assayed for superoxide using a Bio-Spin ESR spectorphotometer (Bruker) at the following settings: center field 3476; […]; frequency 9.75 GHz; microwave power 21.02 mW; modulation amplitude 2.47 G; 512 points resolution; receiver gain 1000. Netrin-1 attenuates I/R induced NOS uncoupling: To assess the coupling state of NOS under I/R and netrin-1-infused I/R conditions, superoxide production was measured with and without the addition of L-NAME, a general inhibitor of NOS. Under normal conditions when NOS is coupled, it produces nitric oxide (NO). Therefore, the addition of L-NAME will reduce the level of NO, resulting in an increase in measured superoxide production. On the other hand, if NOS is uncoupled and is producing superoxide, the addition of L-NAME will reduce measured superoxide. […] Using this method, the coupling state of whole heart homogenate from each condition was measured (n=5 each condition), with the results shown in FIG. 13.

For series [10], the system named is heart mitochondria. The experiment in a line: Mitochondrial swelling assay on mitochondria from perfused hearts. More on the design: species or system mouse. The note with it: isolated mitochondria, absorbance 540 nm. How it is done: Mitochondria isolation: Heart tissue was rinsed twice in ice cold PBS immediately after the end of the Langendorff experiment. The tissue was then homogenized in a pre-chilled glass homogenizer using isolation buffer I (sucrose 250 mM, EGTA 1 mM, HEPES10 mM, and Tris-HCl 10 mM, pH 7.4, 1 ml buffer/0.1 g tissue) on ice. The homogenate was then centrifuged at 800 g for 7 min at 4 C. The supernatant was then transferred to a new tube and centrifuged at 4000 g for 15 min at 4° C. The pellet was rinsed using 1 ml of isolation buffer II (sucrose 250 mM, HEPES 10 mM, Tris-HCl 10 mM, pH 7.4), then centrifuged again at 4000 g for 15 min at 4° C. Further purification was performed by resuspending the pellet with 3 ml of a 19% percoll solution, then layering this on top of a double layer of 30% and 60% percoll solution in a centrifugation tube. The entire tube was spun for 60 min at 1,000 g. The mitochondria layer in the tube was carefully removed. Percoll was washed from the sample by alternating centrifugation and resuspension with isolation buffer II. The final pellet was resuspended in isolation buffer II.
Mitochondrial swelling assay: 30 μg of freshly isolated mitochondria were mixed in a buffer containing 250 mM sucrose and 10 mM Tris (pH 7.4). The mixture was then incubated with 5 mM succinate for 1 minute at room temperature, then with 250 μM of CaCl2. Absorbance at 540 nm was measured immediately for 20 min at 1 minute intervals. Swelling was measured as a decrease in absorbance over time.

Series [11] relates to mouse heart ischemia/reperfusion injury. The experiment in a line: Langendorff I/R, TTC infarct size, NOX4 siRNA or sepiapterin. The note with it: TTC staining.
Series [12] has as its system cardiac superoxide production. The experiment in a line: Superoxide measurement with ESR in heart homogenates after Langendorff I/R. Conditions: siRNA by tail vein, 2 injections. More on the design: species or system mouse. How it is done: Langendorff perfusion: Animals were initially anesthetized with isoflurane. Hearts from the animals were rapidly removed and transferred to ice cold modified Krebs-Henseleit buffer (KHB), consisting of (in mmol/L): NaCl118.0, KCl 4.7, CaCl2 2.5, MgSO4 1.2, Kh2PO4 1.2, NaHCO3 25.0, Glucose 10, pH 7.35. […] While under perfusion, the heart is kept in a 37° C. chamber. For no I/R, hearts were perfused with KHB for 120 min. […] These treatment protocols are illustrated in FIG. 11A. […] At the end of the Langendorff experiment, hearts were removed from the perfusion apparatus and immediately transferred onto ice awaiting homogenization. […] For Western blot analysis, the supernatant from the homogenate centrifuged at 13,000 rpm for 15 min at 4° C. was used. Superoxide measurements with electron spin resonance (ESR): Superoxide production was measured from heart homogenates using ESR as previously described. Briefly, heart homogenate (10 μg) was mixed in a spin trap solution (CMH, 0.5 mmol/L), loaded into a glass capillary (Fisher Scientific) in the presence or absence of L-NAME (100 μmol/L), and assayed for superoxide using a Bio-Spin ESR spectorphotometer (Bruker) at the following settings: center field 3476; […]; frequency 9.75 GHz; microwave power 21.02 mW; modulation amplitude 2.47 G; 512 points resolution; receiver gain 1000.

For series [13], the system named is NOX4. As to the kind of experiment: Western blot of NOX isoforms from whole heart homogenate. The arrangement: species or system mouse. Conditions: NOX4 siRNA in vivo. The text has this:
Preparation of heart tissue for biochemical assays: At the end of the Langendorff experiment, hearts were removed from the perfusion apparatus and immediately transferred onto ice awaiting homogenization. For superoxide measurement and Western blot analysis, hearts were homogenized with ice cold homogenization buffer (Tris 50 mmol/L, EDTA 0.1 mmol/L, EGTA 0.1 mmol/L, protease inhibitor cocktail, pH 7.4) on ice using a glass homogenizer. For Western blot analysis, the supernatant from the homogenate centrifuged at 13,000 rpm for 15 min at 4° C. was used.
Western blot: Western blotting was performed as per standard protocols. Primary antibody for NOX4 (Abcam, Cambridge, Mass.) was used at a dilution of 1:1000. Primary antibody for actin (Sigma-Aldrich, St. Louis, Mo.) was used at a dilution of 1:3000. Secondary antibody conjugated to HRP (Bio-Rad, Hercules, Calif.) was used at a dilution of 1:2000 for NOX4, and 1:10000 for actin.

Entries after “also recorded” stand apart in the source; their conditions may differ.

As to `CNCCCCCCN(C)/[N+]([O-])=N/O` [MAMANOATE], the “DCC protein expression in cultured ECs” value in series [1] is on record as “increased DCC protein expression”. Besides, in [2], the “DCC protein expression in cardiomyocytes” value is recorded as “increased DCC protein expression”.
Regarding `O=NO` [Nitrite], the “reduction in infarct size post I/R insult” value in series [3] is recorded as 48%.
Regarding `CC1(C)N([O])C(c2ccccc2)=[N+]([O-])C1(C)C` [PTIO, 2-phenyl-4,4,5,5-tetramethylimidazoline-1-oxyl 3-oxide], in series [4], the “Netrin-1 stimulated NO production in hearts pre-perfused with the agent” value is reported as “attenuated”. In series [5], the “Infarct size, inhibitor alone” value was “no effect” and the “Effect of netrin-1 postconditioning on infarct size, inhibitor co-treatment” value is given as “abolished”.
As to `N#CC(=C(N)Sc1ccccc1N)C(C#N)=C(N)Sc1ccccc1N` [U0126, 1,4-diamino-2,3-dicyano-1,4-bis (2-aminophenylthio)butadiene], in series [6], the “Infarct size / cardioprotection in netrin-1-perfused hearts pre-perfused with the agent” value is 41.3±4.1%. The “Netrin-1 stimulated NO production in hearts pre-perfused with the agent” value in [4] was 1.12±0.15 fold. In addition, in series [7], the “TUNEL positive cells, agent prior to netrin-1” value is reported as 19.24±2.4%. For the same compound, in [8], the “Netrin-1 increase in phosphorylated ERK1/2 and eNOSs1177, agent prior to netrin-1” value is given as “inhibited”; the “Netrin-1 restoration of DCC protein expression, agent prior to netrin-1” value is “abolished”. Also, the “AKT phosphorylation after the entire I/R procedure” value in series [8] (data not shown) was “unaffected”. In series [5], the “Infarct size, inhibitor alone” value is “no effect” and the “Effect of netrin-1 postconditioning on infarct size, inhibitor co-treatment” value was “abolished”.
For the compound `C[C@H](O)C(=O)C1=Nc2c(nc(N)[nH]c2=O)NC1` [sepiapterin], the “NOS coupling state under I/R” value in [9] was “effective in recoupling NOS; also recorded: recouples NOS”. Besides, the “Mitochondrial function (swelling) in I/R hearts” value in series [10] was “improving mitochondria function; also recorded: improving mitochondrial function”; in series [10] (listed as Sepiapterin) it was “restored mitochondria function; also recorded: effectively diminished mitochondrial dysfunction”. Also, the “Infarct size after I/R” value in series [11] is given as “effective in reducing infarct size”.
On to “NOX4 siRNA: in vivo grade siRNA against NOX4 (SEQ ID NO:19, 20) delivered with nanoparticle transfection kit (chain 1 CAUGCUGCUGCUGUUGCAUGUUUCA; chain 2 CCCUCUGAUGUAAUGGAACUCCGUA; nanoparticle delivery, further chemistry not given here)”, for which the “superoxide levels in NOX4 siRNA treated hearts compared to controls” value in [12] is listed as “increased”. For the same compound, the “NOX4 protein expression in hearts of siRNA treated mice” value in [13] is reported as “successful silencing”. Moreover, in series [9], the “NOS coupling state under I/R” value is given as “functional NOS; also recorded: restored”. In series [10], the “Mitochondrial function (swelling) in I/R hearts” value was “marked improvement; also recorded: improved”. Moreover, the “Infarct size after I/R” value in series [11] was “markedly reduced”.
